Molecules are shown by their SMILES. Values after ≈ are worked out from the molar mass of the structure shown.

Common to all, as to type: functional
For assay [1], the system named is SF-268. Briefly: Cytotoxicity against human SF268 cells after 48 hrs by SRB assay. The note with it: SF-268, 48 h, read-out: ED50 (the source's name). (In general: The SRB assay estimates cell density from bound dye.)
For assay [2], the system named is BXPC-3. Nature of the assay: Cytotoxicity against human BxPC3 cells after 48 hrs by SRB assay. The note with it: BXPC-3, 48 h, read-out: ED50 (the source's name).
The test system of assay [3] is DU-145. Briefly: Cytotoxicity against human DU145 cells after 48 hrs by SRB assay. The note with it: DU-145, 48 h, read-out: ED50 (the source's name).
In assay [4] the test system is KM-20L2. Nature of the assay: Cytotoxicity against human KM20L2 cells after 48 hrs by SRB assay. The settings on record: KM-20L2, 48 h, read-out: ED50 (the source's name).
Assay [5] deals with MCF7. Briefly: Cytotoxicity against human MCF7 cells after 48 hrs by SRB assay. The settings on record: MCF7, 48 h, read-out: ED50 (the source's name).
Assay [6] has as its system NCI-H460. Nature of the assay: Cytotoxicity against human NCI-H460 cells after 48 hrs by SRB assay. The note with it: NCI-H460, 48 h, read-out: ED50 (the source's name).
Assay [7] concerns P388. Nature of the assay: Cytotoxicity against mouse P388 cells. The settings on record: read-out: ED50 (the source's name).

In the case of `[O-]c1cc2c3c(c1)c1cc4c(cc1c[n+]3CC2)OCO4` [UNGEREMINE], the EC50 in assay [1] was 0.057 µg/mL (≈ 0.215 µM); in assay [2], 0.87 µg/mL (≈ 3.28 µM); in assay [3], 0.029 µg/mL (≈ 0.109 µM); in assay [4] it was 0.5 µg/mL (≈ 1.88 µM); in assay [5], 0.48 µg/mL (≈ 1.81 µM); in assay [6], 0.65 µg/mL (≈ 2.45 µM). The EC50 in assay [7] is 1.2 µg/mL (≈ 4.52 µM).
Regarding `O=C1N[C@H]2[C@H](O)[C@H](O)[C@@H](O)[C@H](O)[C@@H]2c2cc3c(c(O)c21)OCO3` [PANCRATISTATIN], the EC50 in assay [1] turned out to be 0.032 µg/mL (≈ 0.0984 µM); in assay [2] it was 0.043 µg/mL (≈ 0.132 µM); in assay [3], 0.037 µg/mL (≈ 0.114 µM); in assay [4], 0.048 µg/mL (≈ 0.148 µM); in assay [5], 0.035 µg/mL (≈ 0.108 µM); in assay [6], 0.029 µg/mL (≈ 0.0892 µM). For the same molecule, in assay [7], the EC50 was 0.048 µg/mL (≈ 0.148 µM).
For the molecule `O=C1N[C@@H]2C(=C[C@H](O)[C@@H](O)[C@H]2O)c2cc3c(c(O)c21)OCO3` [NARCICLASINE], the EC50 in assay [1] stood at 0.018 µg/mL (≈ 0.0586 µM); in assay [2], 0.024 µg/mL (≈ 0.0781 µM); in assay [3] it was 0.012 µg/mL (≈ 0.0391 µM); in assay [4] it was 0.023 µg/mL (≈ 0.0749 µM); in assay [5] it was 0.014 µg/mL (≈ 0.0456 µM); in assay [6], 0.014 µg/mL (≈ 0.0456 µM). Also, in assay [7], the EC50 worked out at 0.018 µg/mL (≈ 0.0586 µM).

The values above are taken from ChEMBL document CHEMBL1141782, “Antineoplastic agents. 553. The Texas grasshopper Brachystola magna” (2005).
